Results published in patent US20240279283A1, “CYCLIC PEPTIDE ANTIBIOTICS” (priority 2021, published 2024).
Bridge positions count the residues as written; N and C are the ends. Square brackets hold non-standard residues; d marks the D form. Peptide text beside a SMILES is read from it. 1Nal = N[C@@H](Cc1cccc2ccccc12)C(=O)O; 2Nal = N[C@@H](Cc1ccc2ccccc2c1)C(=O)O; His(π-Me) = Cn1cncc1C[C@H](N)C(=O)O; NMeY = CN[C@@H](Cc1ccc(O)cc1)C(=O)O; Abu = CC[C@H](N)C(=O)O

Legend:
Assay type in all cases: cell-based
Conditions in all cases: LB broth, 5×10^5 CFU/ml, 37° C., 18 hours, scored by eye
[1] = test system: E. cloacae ATCC222; assay: Minimum Inhibitory Concentration (MIC) determination, E. cloacae ATCC222; design: unit not given here
Procedure: (§1) MICs were determined by performing two-fold serial dilutions of peptides in LB broth to a final volume of 0.1 ml in round-bottom 96-well assay plates (Corning Life Sciences No 3788). Peptides were initially resuspended in 100% DMSO to 10 mM and subsequently diluted in LB medium to the appropriate concentration. Each well was inoculated with 5×10^5 CFU/ml of the screening stain and incubated at 37° C. without agitation for 18 hours. Plates were scored by eye, and the lowest compound concentration preventing visible growth was determined to be the MIC.

[2] = test system: E. coli 25922; assay: Minimum Inhibitory Concentration (MIC) determination, E. coli 25922; design: unit not given here
Procedure: as §1

[3] = test system: E. coli BW25113; assay: Minimum Inhibitory Concentration (MIC) determination, E. coli BW25113; design: unit not given here
Procedure: as §1

[4] = test system: E. coli 25922 IMP; assay: Minimum Inhibitory Concentration (MIC) determination, E. coli 25922 IMP
Procedure: as §1

[5] = test system: K. pneumoniae ATCC43816; assay: Minimum Inhibitory Concentration (MIC) determination, K. pneumoniae ATCC43816; design: unit not given here
Procedure: as §1

Row | Compound | MIC E. cloacae ATCC222 WUXI::MIC [1] | MIC E. coli 25922 WUXI::MIC [2] | MIC E. coli BW25113 WUXI::MIC [3] | MIC E. coli 25922 IMP WUXI::MIC [4] | MIC K. pneumoniae ATCC43816 Wuxi::MIC [5]
1 | CC[C@@H](C)[C@H]1NC(=O)[C@@H](Cc2ccccc2)NC(=O)CSC[C@H](C(=O)NCC(N)=O)NC(=O)[C@@H](Cc2cncn2C)NC(=O)[C@@H](CCCNC(=N)N)NC(=O)[C@@H](Cc2cnc[nH]2)NC(=O)[C@@H](Cc2ccc(O)cc2)N(C)C(=O)[C@@H](CCCNC(=N)N)NC(=O)[C@@H](CO)NC(=O)CNC(=O)[C@@H](Cc2cnc[nH]2)NC(=O)[C@@H](Cc2cccc3ccccc23)NC1=O (mixture of isomers) [Compound 18] | 0.78 | 9.65 | 19 | 0.00585 | 19
2 | CC[C@H](C)[C@@H]1NC(=O)[C@H]([C@@H](C)O)NC(=O)[C@H](Cc2cncn2C)NC(=O)[C@H](Cc2ccccc2)NC(=O)CSC[C@@H](C(=O)NCC(N)=O)NC(=O)[C@H](Cc2ccc(O)cc2)NC(=O)[C@H](Cc2ccc(Cl)cc2)NC(=O)[C@H](Cc2ccc(O)cc2)NC(=O)[C@H](CCCNC(=N)N)NC(=O)[C@H](Cc2ccccc2)NC(=O)C(C)(C)NC(=O)[C@H](CO)NC(=O)[C@H](CCCCN)NC(=O)[C@H](CCCNC(=N)N)NC1=O (mixture of isomers) [Compound 60] |  | 16 | 16 | 1 | 
3 | CC(C)[C@@H]1NC(=O)[C@H](Cc2ccccc2)NC(=O)CSC[C@@H](C(=O)NCC(N)=O)NC(=O)[C@H](Cc2cnc[nH]2)NC(=O)[C@H](CCCNC(=N)N)NC(=O)[C@H](Cc2cnc[nH]2)NC(=O)[C@H](Cc2ccccc2)N(C)C(=O)[C@H](CCCNC(=N)N)NC(=O)[C@H](CO)NC(=O)CNC(=O)[C@H](Cc2cnc[nH]2)NC(=O)[C@H](Cc2c[nH]c3ccccc23)NC1=O (racemic) [Compound 1, rac-(3R,6S,9S,12S,15S,18S,21S,27S,30S, 33S,36S)-N-(2-amino-2-oxo-ethyl)-15,36-dibenzyl-9,18-bis(3-guanidinopropyl)-21-(hydroxymethyl)-6,12,27-tris(1H-imidazol-5-ylmethyl)-30-(1H-indol-3-ylmethyl)-33-isopropyl-16-methyl-5,8,11,14,17,20,23,26,29,32,35,38-dodecaoxo-1-thia-4,7,10,13,16,19,22,25,28,31,34,37-dodecazacyclononatriacontane-3-carboxamide] | 6.3 | 50 | 100 | 0.031 | 50
4 | CC(C)[C@@H]1NC(=O)[C@H](Cc2ccccc2)NC(=O)CSC[C@@H](C(=O)NCC(N)=O)NC(=O)[C@H](Cc2cncn2C)NC(=O)[C@H](CCCNC(=N)N)NC(=O)[C@H](Cc2cnc[nH]2)NC(=O)[C@H](Cc2ccc(O)cc2)N(C)C(=O)[C@H](CCCNC(=N)N)NC(=O)[C@H](CO)NC(=O)CNC(=O)[C@H](Cc2cnc[nH]2)NC(=O)[C@H](Cc2c[nH]c3ccccc23)NC1=O (racemic) [Compound 14] | 1.19 | 25 | 37.5 | 0.0119 | 25
5 | CC[C@H](C)[C@@H]1NC(=O)[C@H](Cc2ccccc2)NC(=O)CSC[C@@H](C(=O)NCC(N)=O)NC(=O)[C@H](Cc2cncn2C)NC(=O)[C@H](CCCNC(=N)N)NC(=O)[C@H](Cc2cnc[nH]2)NC(=O)[C@H](Cc2ccccc2)N(C)C(=O)[C@H](CCCNC(=N)N)NC(=O)[C@H](CO)NC(=O)CNC(=O)[C@H](Cc2cnc[nH]2)NC(=O)[C@H](Cc2c[nH]c3ccccc23)NC1=O (racemic) [Compound 15] | 3.1 | 50 | 100 | 0.016 | 75
6 | CC[C@@H]1NC(=O)[C@H](Cc2ccccc2)NC(=O)CSC[C@@H](C(=O)NCC(N)=O)NC(=O)[C@H](Cc2cncn2C)NC(=O)[C@H](CCCNC(=N)N)NC(=O)[C@H](Cc2cnc[nH]2)NC(=O)[C@H](Cc2ccc(O)cc2)N(C)C(=O)[C@H](CCCNC(=N)N)NC(=O)[C@H](CO)NC(=O)CNC(=O)[C@H](Cc2cnc[nH]2)NC(=O)[C@H](Cc2cccc3ccccc23)NC1=O (racemic) [Compound 16] | 0.2633 | 27.32 | 14.767 | 1.577 | 8.5333
7 | CC[C@@H](C)[C@H]1NC(=O)[C@@H](Cc2ccccc2)NC(=O)CSC[C@H](C(=O)NCC(N)=O)NC(=O)[C@@H](Cc2cncn2C)NC(=O)[C@@H](CCCNC(=N)N)NC(=O)[C@@H](Cc2cnc[nH]2)NC(=O)[C@@H](Cc2ccccc2)N(C)C(=O)[C@@H](CCCNC(=N)N)NC(=O)[C@@H](CO)NC(=O)CNC(=O)[C@@H](Cc2cnc[nH]2)NC(=O)[C@@H](Cc2cccc3ccccc23)NC1=O (racemic) [Compound 17] | 3.1 | 13 | 50 | 0.002 | 37.5
8 | CC[C@H](C)[C@@H]1NC(=O)[C@H]([C@@H](C)O)NC(=O)CNC(=O)[C@H](Cc2ccccc2)NC(=O)CSC[C@@H](C(=O)NCC(N)=O)NC(=O)[C@H](Cc2ccccc2)NC(=O)[C@H](Cc2c[nH]c3ccccc23)NC(=O)[C@H](Cc2ccc(O)cc2)NC(=O)[C@H](CCCNC(=N)N)NC(=O)[C@H](Cc2ccccc2)NC(=O)[C@H](CCCNC(=N)N)NC(=O)[C@H](CCCNC(=N)N)NC(=O)[C@H](CCCCN)NC(=O)[C@H](Cc2cnc[nH]2)NC1=O (racemic) [Compound 50] | >64 | 2 | 2 | 1 | 32
9 | CC[C@H](C)[C@@H]1NC(=O)[C@H]([C@@H](C)O)NC(=O)[C@H](Cc2cncn2C)NC(=O)[C@H](Cc2ccccc2)NC(=O)CSC[C@@H](C(=O)NCC(N)=O)NC(=O)[C@H](Cc2ccc(O)cc2)NC(=O)[C@H](Cc2c[nH]c3ccccc23)NC(=O)[C@H](Cc2ccc(O)cc2)NC(=O)[C@H](CCCNC(=N)N)NC(=O)[C@H](Cc2ccccc2)NC(=O)C(C)(C)NC(=O)[C@H](CO)NC(=O)[C@H](CCCCN)NC(=O)[C@H](CCCNC(=N)N)NC1=O (racemic) [Compound 59] |  | 8 | 16 | 1 | 
10 | CC[C@H](C)[C@@H]1NC(=O)[C@H]([C@@H](C)O)NC(=O)[C@H](Cc2cncn2C)NC(=O)[C@H](Cc2ccccc2)NC(=O)CSC[C@@H](C(=O)NCC(N)=O)NC(=O)[C@H](Cc2ccc(O)cc2)NC(=O)[C@H](Cc2c[nH]c3ccccc23)NC(=O)[C@H](Cc2ccc(O)cc2)NC(=O)[C@H](CCCCN)NC(=O)[C@H](Cc2ccccc2)NC(=O)C(C)(C)NC(=O)[C@H](CO)NC(=O)[C@H](CCCCN)NC(=O)[C@H](CCCNC(=N)N)NC1=O (racemic) [Compound 61] |  | 16 | 16 | 1 | 
11 | CC[C@@H]1NC(=O)[C@H](Cc2ccccc2)NC(=O)CSC[C@@H](C(=O)NCC(N)=O)NC(=O)[C@H](Cc2cncn2C)NC(=O)[C@H](CCCNC(=N)N)NC(=O)[C@H](Cc2c[nH]cn2)NC(=O)[C@H](Cc2ccc(O)cc2)N(C)C(=O)[C@H](CCCNC(=N)N)NC(=O)[C@H](CO)NC(=O)CNC(=O)[C@H](Cc2c[nH]cn2)NC(=O)[C@H](Cc2ccc3ccccc3c2)NC1=O [Compound 25] ({CH2CO}-F[Abu][2Nal]HGSR[NMeY]HR[His(π-Me)]CG-NH2; thioether N-12) |  | 25 |  | 0.031 | 
12 | CC[C@@H]1NC(=O)[C@H](Cc2ccccc2)NC(=O)CSC[C@@H](C(=O)NCC(N)=O)NC(=O)[C@H](Cc2cncn2C)NC(=O)[C@H](CCCNC(=N)N)NC(=O)[C@H](Cc2c[nH]cn2)NC(=O)[C@H](Cc2ccc(O)cc2)NC(=O)[C@H](CCCNC(=N)N)NC(=O)[C@H](CO)NC(=O)CNC(=O)[C@H](Cc2c[nH]cn2)NC(=O)[C@H](Cc2cccc3ccccc23)NC1=O [Compound 32, (3R,6S,9S,12S,15S,18S,21S,27S,30S, 33S,36S)-N-(2-amino-2-oxo-ethyl)-36-benzyl-33-ethyl-9,18-bis(3-guanidinopropyl)-21-(hydroxymethyl)-15-[(4-hydroxyphenyl)methyl]-12,27-bis(1H-imidazol-4-ylmethyl)-6-[(3-methylimidazol-4-yl)methyl]-30-(1-naphthylmethyl)-5,8,11,14,17,20,23,26,29,32,35,38-dodecaoxo-1-thia-4,7,10,13,16,19,22,25,28,31,34,37-dodecazacyclononatriacontane-3-carboxamide] ({CH2CO}-F[Abu][1Nal]HGSRYHR[His(π-Me)]CG-NH2; thioether N-12) |  | 25 |  | 0.031 | 
13 | CC[C@@H]1NC(=O)[C@H](Cc2ccccc2)NC(=O)CSC[C@@H](C(=O)NCC(N)=O)NC(=O)[C@H](Cc2cncn2C)NC(=O)[C@H](CCCNC(=N)N)NC(=O)[C@H](Cc2c[nH]cn2)NC(=O)[C@H](Cc2ccc(O)cc2)N(C)C(=O)[C@H](C)NC(=O)[C@H](CO)NC(=O)CNC(=O)[C@H](Cc2c[nH]cn2)NC(=O)[C@H](Cc2cccc3ccccc23)NC1=O [Compound 36] ({CH2CO}-F[Abu][1Nal]HGSA[NMeY]HR[His(π-Me)]CG-NH2; thioether N-12) |  | 100 |  | 100 | 
